# Results: PMC11062899, “De novo development of small cyclic peptides that are orally bioavailable” (Nature Chemical Biology, 2023)
# Target: human α-thrombin (Homo sapiens, UniProt P00734)
# Test: Sub-library screen for active and permeable cyclic peptides (PAMPA plus thrombin inhibition)
# Format: biochemical
# Conditions: crude, slopes normalized to DMSO; for Residual thrombin activity: Top sample: PAMPA acceptor well after 14 h, 5 μM donor; for Residual thrombin activity: Equilibrated sample: donor sample diluted to theoretical equilibrium (1 μM in assay)
# Method: Linear dithiol peptides were synthesized in fritted 5-ml polypropylene syringes on a MultiPep RSi parallel peptide synthesizer (Intavis) by standard Fmoc-based solid-phase peptide synthesis on cysteamine 2-chlorotrityl resin (Sigma-Aldrich, 8.56000, 1.63 mmol g^−1 loading, 25 μmol scale) as described above with small changes. Amino acids (65 μmol, 2.6 eq.) were activated with HATU (63 μmol, 2.5 eq.) and NMM (145 μmol, 5.8 eq.) in 280 μl of DMF and 5 μl of NMP and let to react with the resin (25 μmol, 1 eq.) for 45 min. Couplings were performed twice for each amino acid. Resin was washed once with 800 μl of DMF, and unreacted amines were capped with 5% acetic anhydride and 6% 2,6-lutidine in 400 μl of DMF for 5 min. The resin was washed six times with 600 μl of DMF, and Fmoc protecting groups were removed by incubating the resin twice with 450 μl of a 20% piperidine solution in DMF for 5 min. The resin was washed six times with 600 μl of DMF before proceeding to the next coupling cycle. After completing the last coupling cycle, the resin was washed six times with […] of DCM. Peptide cleavage and ether precipitation were carried out as described above. After quantification with Ellman’s reagent, 1 μmol of each peptide was transferred in seven replicates to new Nunc 96-well DeepWell polypropylene plates and lyophilized. Peptides were cyclized as described above to afford 20 mM cyclic peptide stock solutions in DMSO containing 160 mM HEPES sodium salt. The amine on cyclic peptides was acylated with 5-chlorothiophene-2-carboxylic acid as follows. A 160 mM solution in 5-chlorothiophene-2-carboxylic acid was prepared in DMSO containing 160 mM HEPES sodium salt, and the acid was activated by mixing in equal volumes with a 160 mM HSTU solution in DMSO. Then, 10 μl of the activated carboxylic acid solutions and the cyclic peptide stocks were placed in Echo Qualified 384-well Low Dead Volume microplates (Labcyte), and 400 nl of cyclic peptide and 400 nl of HSTU-activated 5-chlorothiophene-2-carboxylic acid were transferred combinatorially to 384-well microplates (Greiner, 781076) using the Echo 650 acoustic liquid handler (Labcyte). Plates were centrifuged at 2,000 g for 2 min, and the reaction was allowed to proceed at room temperature for 8 h before addition of 39.2 μl of DMSO with a CERTUS FLEX liquid dispenser (Gyger). A volume of 25 μl of the resulting DMSO solutions was diluted with PBS buffer at pH 7.4 containing 5% DMSO in Nunc 96-well DeepWell polypropylene plates to afford 5 μM solutions of the acylated peptides.
# The PAMPA plates were covered with a lid to avoid evaporation and incubated for 14 h at room temperature. Additionally, a diluted donor sample was prepared at the concentration representing theoretical maximum permeability (3 μM). Thereby, 30 μl of the donor sample before incubation was diluted with 20 μl of PBS buffer at pH 7.4 containing 5% DMSO. Volumes of 16 μl of each acceptor well and the diluted donor samples were transferred to a 384-well microplate (Greiner, 781076), and thrombin activity was measured as follows. Human α-thrombin (16 μl, 6 nM, Molecular Innovations) in assay buffer was dispensed into each well using a CERTUS FLEX liquid dispenser (Gyger), and plates were incubated at room temperature for 10 min. Then, 16 μl of a 150 μM fluorogenic thrombin substrate solution (Z-Gly-Gly-Arg-AMC, Bachem) in assay buffer containing 1% DMSO was added to each well, and thrombin inhibition was determined by measuring the fluorescent gain over time. Fluorescence intensity was measured on a Tecan Infinite M200 Pro microplate reader for 30 min at 25 °C with a fluorescent readout every 3 min (excitation: 360 nm, emission: 465 nm). Protease inhibition was calculated by comparing the enzymatic activity to a control without cyclic peptide.
Compound,Residual thrombin activity: Top sample,Residual thrombin activity: Equilibrated sample
Cc1cccc(C[C@@H]2NC(=O)[C@@H](NC(=O)c3ccc(Cl)s3)CCSCc3cccc(c3)CSCCNC(=O)C[C@H]3CCCN3C2=O)c1 [C2-X37-L5],104.6,95.0
O=C1C[C@H]2CCCN2C(=O)[C@@H](Cc2ccccc2)NC(=O)[C@@H](NC(=O)c2ccc(Cl)s2)CCSC/C=C/CSCCN1 [C2-X31-L4],98.4,104.3
O=C1C[C@H]2CCCN2C(=O)[C@H](Cc2ccc(C(F)(F)F)cc2)NC(=O)[C@@H](NC(=O)c2ccc(Cl)s2)CCCSCCS(=O)(=O)CCSCCN1 [C3-X36-L2],105.4,99.8
O=C1C[C@H]2CCCN2C(=O)[C@H](Cc2ccc(C(F)(F)F)cc2)NC(=O)[C@@H](NC(=O)c2ccc(Cl)s2)CCSCc2cccc(n2)CSCCN1 [C2-X36-L1],95.5,97.7
O=C1CSCCC[C@H](NC(=O)c2ccc(Cl)s2)C(=O)N[C@@H](Cc2ccc(Cl)cc2)C(=O)N2CCC[C@@H]2CC(=O)NCCSC1 [C3-X34-L7],103.7,93.3
O=C1CSCCNC(=O)C[C@H]2CCCN2C(=O)[C@H](Cc2ccccc2)NC(=O)[C@@H](NC(=O)c2ccc(Cl)s2)CCSC1 [C2-X5-L7],95.7,44.2
N#Cc1ccc(C[C@@H]2NC(=O)[C@@H](NC(=O)c3ccc(Cl)s3)CSCCS(=O)(=O)CCSCCNC(=O)C[C@H]3CCCN3C2=O)cc1 [C1-X35-L2],95.6,96.6
Cc1cccc(C[C@@H]2NC(=O)[C@@H](NC(=O)c3ccc(Cl)s3)CSCc3cccc(n3)CSCCNC(=O)C[C@H]3CCCN3C2=O)c1 [C1-X37-L1],86.5,84.1
O=C1C[C@H]2CCCN2C(=O)[C@H](Cc2ccc(Cl)cc2)NC(=O)[C@@H](NC(=O)c2ccc(Cl)s2)CCCSCc2ccccc2CSCCN1 [C3-X34-L6],94.7,78.6
O=C1C[C@H]2CCCN2C(=O)[C@@H](Cc2ccccc2)NC(=O)[C@@H](NC(=O)c2ccc(Cl)s2)CSCCS(=O)(=O)CCSCCN1 [C1-X31-L2],103.5,90.9
COc1ccc(C[C@@H]2NC(=O)[C@@H](NC(=O)c3ccc(Cl)s3)CCCSCC(=O)CSCCNC(=O)C[C@H]3CCCN3C2=O)cc1 [C3-X33-L7],103.1,99.9
CN1C(=O)[C@@H](NC(=O)c2ccc(Cl)s2)CCSCc2ccc(cc2)CSCCNC(=O)C[C@H]2CCCN2C(=O)[C@@H]1Cc1ccccc1 [C2-X32-L3],97.8,96.9
O=C1C[C@H]2CCCN2C(=O)[C@@H](Cc2ccccc2)NC(=O)[C@@H](NC(=O)c2ccc(Cl)s2)CCSCc2cccc(n2)CSCCN1 [C2-X31-L1],93.0,90.7
Cc1cccc(C[C@@H]2NC(=O)[C@@H](NC(=O)c3ccc(Cl)s3)CCCSCc3ccc(cc3)CSCCNC(=O)C[C@H]3CCCN3C2=O)c1 [C3-X37-L3],90.5,68.7
O=C1C[C@H]2CCCN2C(=O)[C@@H](Cc2ccccc2)NC(=O)[C@@H](NC(=O)c2ccc(Cl)s2)CCCSCc2ccc(cc2)CSCCN1 [C3-X31-L3],99.4,96.8
O=C1C[C@H]2CCCN2C(=O)[C@H](Cc2ccc(Cl)cc2)NC(=O)[C@@H](NC(=O)c2ccc(Cl)s2)CCCSCc2cccc(n2)CSCCN1 [C3-X34-L1],99.1,94.7
O=C1C[C@H]2CCCN2C(=O)[C@H](Cc2ccccc2)NC(=O)[C@@H](NC(=O)c2ccc(Cl)s2)CSCc2cccc(c2)CSCCN1 [C1-X5-L5],92.1,73.3
O=C1C[C@H]2CCCN2C(=O)[C@@H](Cc2ccccc2)NC(=O)[C@@H](NC(=O)c2ccc(Cl)s2)CCSCc2ccc(cc2)CSCCN1 [C2-X31-L3],96.0,100.5
CN1C(=O)[C@@H](NC(=O)c2ccc(Cl)s2)CCCSCc2ccc(cc2)CSCCNC(=O)C[C@H]2CCCN2C(=O)[C@@H]1Cc1ccccc1 [C3-X32-L3],101.7,98.3
CN1C(=O)[C@@H](NC(=O)c2ccc(Cl)s2)CCCSCc2cccc(c2)CSCCNC(=O)C[C@H]2CCCN2C(=O)[C@@H]1Cc1ccccc1 [C3-X32-L5],103.6,103.6
N#Cc1ccc(C[C@@H]2NC(=O)[C@@H](NC(=O)c3ccc(Cl)s3)CCCSCc3ccc(cc3)CSCCNC(=O)C[C@H]3CCCN3C2=O)cc1 [C3-X35-L3],103.5,94.6
N#Cc1ccc(C[C@@H]2NC(=O)[C@@H](NC(=O)c3ccc(Cl)s3)CCCSCc3ccccc3CSCCNC(=O)C[C@H]3CCCN3C2=O)cc1 [C3-X35-L6],96.5,93.5
O=C1C[C@H]2CCCN2C(=O)[C@H](Cc2ccccc2)NC(=O)[C@@H](NC(=O)c2ccc(Cl)s2)CCSCc2cccc(n2)CSCCN1 [C2-X5-L1],56.1,37.8
Cc1cccc(C[C@@H]2NC(=O)[C@@H](NC(=O)c3ccc(Cl)s3)CCCSCc3cccc(c3)CSCCNC(=O)C[C@H]3CCCN3C2=O)c1 [C3-X37-L5],100.9,83.4
O=C1C[C@H]2CCCN2C(=O)[C@H](Cc2ccc(Cl)cc2)NC(=O)[C@@H](NC(=O)c2ccc(Cl)s2)CSCCS(=O)(=O)CCSCCN1 [C1-X34-L2],95.9,98.3
COc1ccc(C[C@@H]2NC(=O)[C@@H](NC(=O)c3ccc(Cl)s3)CCSCc3cccc(c3)CSCCNC(=O)C[C@H]3CCCN3C2=O)cc1 [C2-X33-L5],104.9,49.9
O=C1C[C@H]2CCCN2C(=O)[C@H](Cc2ccc(C(F)(F)F)cc2)NC(=O)[C@@H](NC(=O)c2ccc(Cl)s2)CCCSCc2cccc(n2)CSCCN1 [C3-X36-L1],102.2,98.3
O=C1C[C@H]2CCCN2C(=O)[C@@H](Cc2ccccc2)NC(=O)[C@@H](NC(=O)c2ccc(Cl)s2)CSCc2cccc(n2)CSCCN1 [C1-X31-L1],89.8,93.2
